Experimental data as given in PubChem BioAssay AID2060889 (Molecular Pharmacology Branch, DTP, NCI, 2025).

Tested on: LG0567-F671-PDC complex spheroids viability
Assay: Anticancer human tumor LG0567-F671-PDC patient-derived lung adenocarcinoma cell line growth inhibition [RAS]
Conditions: for viability, T/C: stronger effect = lower value
Summary of the method: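 Agents were tested in combination matrices in half-log decrements from a top concentration at or near clinical Cmax (10 microM if undetermined). Targets were multi-cell spheroids of tumour lines plus HUVEC and MSC stromal cells.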
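Further: spheroids exposed to compound for seven days before readout.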
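Wherever IC50 is given: luminescence signal used as a proxy for viable cells.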

For `Cc1nc(N2CCC3(CC2)COC(C)C3N)c(CO)nc1Sc1ccnc(N)c1Cl` (stereo unspecified) + CCn1c(-c2cccnc2C(C)OC)c2c3cc(ccc31)N1CCOC(CC(NC(=O)C(C(C)C)N(C)C(=O)C3(F)CCN(C(=O)C#CC(C)(C)N(C)C)CC3)C(=O)N3CCCC(N3)C(=O)OCC(C)(C)C2)C1, the IC50 (curve of first compound, second compound 0.000949 µM) was under 31.6 nM, the IC50 (curve of first compound, second compound 0.003 µM) was under 31.6 nM and the IC50 (curve of first compound, second compound 0.00949 µM) was under 31.6 nM. It also gave an IC50 (curve of first compound, second compound 0.03 µM) of under 31.6 nM, an IC50 (curve of first compound, second compound 0.0949 µM) of under 31.6 nM and an IC50 (curve of first compound, second compound 0.3 µM) of under 31.6 nM. The viability, T/C (second compound 0.000949 µM, first compound 0.0316 µM) was 10.8%, the viability, T/C (second compound 0.000949 µM, first compound 0.1 µM) was 7.91% and the viability, T/C (second compound 0.000949 µM, first compound 0.316 µM) was 6.47%. For the same molecule, the viability, T/C (second compound 0.000949 µM, first compound 1 µM) was 4.21%, the viability, T/C (second compound 0.000949 µM, first compound 3.16 µM) was 2.97% and the viability, T/C (second compound 0.000949 µM, first compound 10 µM) was 3.86%. It also gave a viability, T/C (second compound 0.003 µM, first compound 0.0316 µM) of 12%, a viability, T/C (second compound 0.003 µM, first compound 0.1 µM) of 8.89% and a viability, T/C (second compound 0.003 µM, first compound 0.316 µM) of 6.21%. The viability, T/C (second compound 0.003 µM, first compound 1 µM) was 4.14%, the viability, T/C (second compound 0.003 µM, first compound 3.16 µM) was 3.41% and the viability, T/C (second compound 0.003 µM, first compound 10 µM) was 2.94%. It also gave a viability, T/C (second compound 0.00949 µM, first compound 0.0316 µM) of 10.7%, a viability, T/C (second compound 0.00949 µM, first compound 0.1 µM) of 8.42% and a viability, T/C (second compound 0.00949 µM, first compound 0.316 µM) of 5.46%. The viability, T/C (second compound 0.00949 µM, first compound 1 µM) was 3.45%, the viability, T/C (second compound 0.00949 µM, first compound 3.16 µM) was 2.86% and the viability, T/C (second compound 0.00949 µM, first compound 10 µM) was 3.85%. It also gave a viability, T/C (second compound 0.03 µM, first compound 0.0316 µM) of 10.3%, a viability, T/C (second compound 0.03 µM, first compound 0.1 µM) of 6.81% and a viability, T/C (second compound 0.03 µM, first compound 0.316 µM) of 6.16%. The viability, T/C (second compound 0.03 µM, first compound 1 µM) was 3.36%, the viability, T/C (second compound 0.03 µM, first compound 3.16 µM) was 2.76% and the viability, T/C (second compound 0.03 µM, first compound 10 µM) was 2.27%. The viability, T/C (second compound 0.0949 µM, first compound 0.0316 µM) was 6.53%, the viability, T/C (second compound 0.0949 µM, first compound 0.1 µM) was 6.31% and the viability, T/C (second compound 0.0949 µM, first compound 0.316 µM) was 5%. It also gave a viability, T/C (second compound 0.0949 µM, first compound 1 µM) of 3.1%, a viability, T/C (second compound 0.0949 µM, first compound 3.16 µM) of 2.61% and a viability, T/C (second compound 0.0949 µM, first compound 10 µM) of 3.31%. It also gave a viability, T/C (second compound 0.3 µM, first compound 0.0316 µM) of 6.4%, a viability, T/C (second compound 0.3 µM, first compound 0.1 µM) of 4.69% and a viability, T/C (second compound 0.3 µM, first compound 0.316 µM) of 3.02%. The viability, T/C (second compound 0.3 µM, first compound 1 µM) was 3.78%, the viability, T/C (second compound 0.3 µM, first compound 3.16 µM) was 2.19% and the viability, T/C (second compound 0.3 µM, first compound 10 µM) was 3.11%.
For `C#Cc1c(F)ccc2cc(O)cc(-c3ncc4c(N5CC6CCC(C5)N6)nc(OCC56CCCN5CC(F)C6)nc4c3F)c12` (stereo unspecified), the viability, T/C (compound 0.0316 µM) was 91.2% [middle of 8 runs], the viability, T/C (compound 0.1 µM) was 80% [middle of 8 runs] and the viability, T/C (compound 0.316 µM) was 56.1% [middle of 8 runs]. For the same molecule, the viability, T/C (compound 1 µM) was 36.8% [middle of 8 runs], the viability, T/C (compound 3.16 µM) was 19.6% [middle of 8 runs] and the viability, T/C (compound 10 µM) was 12.4% [middle of 8 runs]. The IC50 (compound alone, run of 09/09/2024) was 494 nM [middle of 8 runs].
`Nc1ccn(C2OC(CO)C(O)C2(F)F)c(=O)n1` (stereo unspecified) + C#Cc1c(F)ccc2cc(O)cc(-c3ncc4c(N5CC6CCC(C5)N6)nc(OCC56CCCN5CC(F)C6)nc4c3F)c12 gave an IC50 (curve of first compound, second compound 0.0316 µM) of over 1000 nM, an IC50 (curve of first compound, second compound 0.1 µM) of over 1000 nM and an IC50 (curve of first compound, second compound 0.316 µM) of under 3.16 nM. For the same molecule, the IC50 (curve of first compound, second compound 1 µM) was under 3.16 nM, the IC50 (curve of first compound, second compound 3.16 µM) was under 3.16 nM and the IC50 (curve of first compound, second compound 10 µM) was under 3.16 nM. It also gave a viability, T/C (second compound 0.0316 µM, first compound 0.00316 µM) of 76.6%, a viability, T/C (second compound 0.0316 µM, first compound 0.01 µM) of 74.5% and a viability, T/C (second compound 0.0316 µM, first compound 0.0316 µM) of 60.8%. It also gave a viability, T/C (second compound 0.0316 µM, first compound 0.1 µM) of 59.8%, a viability, T/C (second compound 0.0316 µM, first compound 0.316 µM) of 63.2% and a viability, T/C (second compound 0.0316 µM, first compound 1 µM) of 59.5%. The viability, T/C (second compound 0.1 µM, first compound 0.00316 µM) was 70.4%, the viability, T/C (second compound 0.1 µM, first compound 0.01 µM) was 71.7% and the viability, T/C (second compound 0.1 µM, first compound 0.0316 µM) was 52.1%. The viability, T/C (second compound 0.1 µM, first compound 0.1 µM) was 61.5%, the viability, T/C (second compound 0.1 µM, first compound 0.316 µM) was 59.8% and the viability, T/C (second compound 0.1 µM, first compound 1 µM) was 59.2%. It also gave a viability, T/C (second compound 0.316 µM, first compound 0.00316 µM) of 46.8%, a viability, T/C (second compound 0.316 µM, first compound 0.01 µM) of 46.7% and a viability, T/C (second compound 0.316 µM, first compound 0.0316 µM) of 47.6%. It also gave a viability, T/C (second compound 0.316 µM, first compound 0.1 µM) of 46.5%, a viability, T/C (second compound 0.316 µM, first compound 0.316 µM) of 49.4% and a viability, T/C (second compound 0.316 µM, first compound 1 µM) of 44.8%. It also gave a viability, T/C (second compound 1 µM, first compound 0.00316 µM) of 26.7%, a viability, T/C (second compound 1 µM, first compound 0.01 µM) of 27.3% and a viability, T/C (second compound 1 µM, first compound 0.0316 µM) of 25.5%. The viability, T/C (second compound 1 µM, first compound 0.1 µM) was 26.9%, the viability, T/C (second compound 1 µM, first compound 0.316 µM) was 27.9% and the viability, T/C (second compound 1 µM, first compound 1 µM) was 27.5%. It also gave a viability, T/C (second compound 3.16 µM, first compound 0.00316 µM) of 16.1%, a viability, T/C (second compound 3.16 µM, first compound 0.01 µM) of 16.4% and a viability, T/C (second compound 3.16 µM, first compound 0.0316 µM) of 16.8%. It also gave a viability, T/C (second compound 3.16 µM, first compound 0.1 µM) of 16%, a viability, T/C (second compound 3.16 µM, first compound 0.316 µM) of 16.4% and a viability, T/C (second compound 3.16 µM, first compound 1 µM) of 14.8%. For the same molecule, the viability, T/C (second compound 10 µM, first compound 0.00316 µM) was 8.86%, the viability, T/C (second compound 10 µM, first compound 0.01 µM) was 9.45% and the viability, T/C (second compound 10 µM, first compound 0.0316 µM) was 9%. The viability, T/C (second compound 10 µM, first compound 0.1 µM) was 8.04%, the viability, T/C (second compound 10 µM, first compound 0.316 µM) was 8.48% and the viability, T/C (second compound 10 µM, first compound 1 µM) was 9.14%.
